Test results reported in patent US12252484B2, “Pyrazolopyridine compounds for the treatment of autoimmune disease” (Hoffmann-La Roche Inc., priority 2018, dated 2025).

The compounds below were run against T1, human TLR8 (Homo sapiens, UniProt Q9NR97) (assay: HEK293-Blue-hTLR-8 cells assay (SEAP reporter, R848 stimulation)). Details: HEK293-Blue-hTLR-8 cells, R848 ligand, 20 hrs incubation; read-out: TLR8 IC50.
T1 sequence (Q9NR97 27-1041): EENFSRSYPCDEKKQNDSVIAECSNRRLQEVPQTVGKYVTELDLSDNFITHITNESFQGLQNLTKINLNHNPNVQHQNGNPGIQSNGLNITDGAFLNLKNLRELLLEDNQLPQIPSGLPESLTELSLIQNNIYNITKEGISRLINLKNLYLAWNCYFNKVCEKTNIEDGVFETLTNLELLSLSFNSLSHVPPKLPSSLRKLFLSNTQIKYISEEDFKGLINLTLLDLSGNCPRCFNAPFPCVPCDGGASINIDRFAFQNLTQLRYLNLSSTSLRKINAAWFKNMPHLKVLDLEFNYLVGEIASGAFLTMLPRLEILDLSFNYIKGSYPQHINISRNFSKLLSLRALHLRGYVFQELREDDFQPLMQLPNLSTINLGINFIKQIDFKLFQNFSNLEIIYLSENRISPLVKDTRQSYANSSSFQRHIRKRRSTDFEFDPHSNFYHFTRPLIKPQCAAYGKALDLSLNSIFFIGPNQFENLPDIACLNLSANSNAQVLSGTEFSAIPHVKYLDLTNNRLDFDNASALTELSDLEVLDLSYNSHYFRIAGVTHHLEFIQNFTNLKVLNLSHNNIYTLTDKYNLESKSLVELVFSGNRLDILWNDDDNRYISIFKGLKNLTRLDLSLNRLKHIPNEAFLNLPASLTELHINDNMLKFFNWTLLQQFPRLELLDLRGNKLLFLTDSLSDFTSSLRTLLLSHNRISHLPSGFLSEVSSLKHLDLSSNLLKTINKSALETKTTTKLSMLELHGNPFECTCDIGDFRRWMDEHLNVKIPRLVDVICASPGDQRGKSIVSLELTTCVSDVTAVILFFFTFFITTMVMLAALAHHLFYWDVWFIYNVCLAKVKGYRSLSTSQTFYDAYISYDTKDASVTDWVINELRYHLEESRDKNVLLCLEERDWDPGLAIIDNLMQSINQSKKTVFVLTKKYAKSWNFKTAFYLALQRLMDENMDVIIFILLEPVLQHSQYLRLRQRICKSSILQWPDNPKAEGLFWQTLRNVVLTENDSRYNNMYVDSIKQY
Assay type: cell-based
Description: The following tests were carried out in order to determine the activity of the compounds of formula (I) in HEK293-Blue-hTLR-7/8/9 cells assay.
HEK293-Blue-hTLR-8 Cells Assay:
A stable HEK293-Blue-hTLR-8 cell line was purchased from InvivoGen (Cat. #: hkb-htlr8, San Diego, California, USA). These cells were originally designed for studying the stimulation of human TLR8 by monitoring the activation of NF-κB. A SEAP (secreted embryonic alkaline phosphatase) reporter gene was placed under the control of the IFN-β minimal promoter fused to five NF-κB and AP-1-binding sites. The SEAP was induced by activating NF-κB and AP-1 via stimulating HEK-Blue hTLR8 cells with TLR8 ligands. Therefore the reporter expression was declined by TLR8 antagonist under the stimulation of a ligand, such as R848, for incubation of 20 hrs. The cell culture supernatant SEAP reporter activity was determined using QUANTI-Blue™ kit (Cat. #: rep-qb1, Invivogen, San Diego, Ca, USA) at a wavelength of 640 nm, a detection medium that turns purple or blue in the presence of alkaline phosphatase.
HEK293-Blue-hTLR8 cells were incubated at a density of 250,000˜450,000 cells/mL in a volume of 170 μL in a 96-well plate in Dulbecco's Modified Eagle's medium (DMEM) containing 4.5 g/L glucose, 50 U/mL penicillin, […], […], 2 mM L-glutamine, 10% (v/v) heat-inactivated fetal bovine serum with addition of 20 μL test compound in a serial dilution in the presence of final DMSO at 1% and 10 μL of 60 uM R848 in above DMEM, perform incubation under 37° C. in a CO2 incubator for 20 hrs. Then 20 μL of the supernatant from each well was incubated with 180 μL Quanti-blue substrate solution at 37° C. for 2 hrs and the absorbance was read at 620˜655 nm using a spectrophotometer. The signalling pathway that TLR8 activation leads to downstream NF-κB activation has been widely accepted, and therefore similar reporter assay was modified for evaluating TLR8 antagonist.

IC50 [nM] | SMILES
240 | C[C@H]1C[C@@H](NCC#N)CN(c2ccc(C#N)n3nccc23)C1 [Example 46, 4-[(3R,5S)-3-(cyanomethylamino)-5-methyl-1-piperidyl]pyrazolo[1,5-a]pyridine-7-carbonitrile]
570 | CCC(O)CNC(=O)[C@H]1CN(c2ccc(C#N)n3nccc23)C[C@@H](C)O1 (stereo partly drawn) [Example 13, (2R,6R)-4-(7-cyanopyrazolo[1,5-a]pyridin-4-yl)-N-(2-hydroxybutyl)-6-methyl-morpholine-2-carboxamide]
37 | C[C@@H]1CN(c2ccc(C#N)n3nccc23)C[C@H](C(=O)NC2CCNCC2)O1 [Example 24, (2R,6R)-4-(7-cyanopyrazolo[1,5-a]pyridin-4-yl)-6-methyl-N-(4-piperidyl)morpholine-2-carboxamide]
62 | C[C@@H]1CN(c2ccc(C#N)n3nccc23)C[C@H](C(=O)Nc2ccc(C(=O)N3CCNCC3)cc2)O1 [Example 42, (2R,6R)-4-(7-cyanopyrazolo[1,5-a]pyridin-4-yl)-6-methyl-N-[4-(piperazine-1-carbonyl)phenyl]morpholine-2-carboxamide]
370 | C[C@@H]1CN(c2ccc(C#N)n3nccc23)C[C@H](C(=O)NC2C3CNCC2COC3)O1 (stereo partly drawn) [Example 27, (2R,6R)-4-(7-cyanopyrazolo[1,5-a]pyridin-4-yl)-6-methyl-N-(3-oxa-7-azabicyclo[3.3.1]nonan-9-yl)morpholine-2-carboxamide]
210 | C[C@@H]1CN(c2ccc(C#N)n3nccc23)C[C@H](C(=O)NC(C)(C)CO)O1 [Example 16, (2R,6R)-4-(7-cyanopyrazolo[1,5-a]pyridin-4-yl)-N-(2-hydroxy-1,1-dimethyl-ethyl)-6-methyl-morpholine-2-carboxamide]
98 | C[C@@H]1CN(c2ccc(C#N)n3nccc23)C[C@H](C(=O)NC2CC3CCC2CN3C)O1 (stereo partly drawn) [Example 34, (2R,6R)-4-(7-cyanopyrazolo[1,5-a]pyridin-4-yl)-6-methyl-N-(2-methyl-2-azabicyclo[2.2.2]octan-5-yl)morpholine-2-carboxamide]
11 | C[C@@H]1CN(c2ccc(C#N)n3nccc23)C[C@H](C(=O)NC2CCCNCC2)O1 (stereo partly drawn) [Example 6, (2R,6R)-N-(azepan-4-yl)-4-(7-cyanopyrazolo[1,5-a]pyridin-4-yl)-6-methyl-morpholine-2-carboxamide]
72 | C[C@@H]1CN(c2ccc(C#N)n3nccc23)C[C@H](C(=O)NC2C3CNC[C@@H]32)O1 (stereo partly drawn) [Example 31, Trans-(2R,6R)-N-(3-azabicyclo[3.1.0]hexan-6-yl)-4-(7-cyanopyrazolo[1,5-a]pyridin-4-yl)-6-methyl-morpholine-2-carboxamide]
18 | C[C@@H]1CN(c2ccc(C#N)n3nccc23)C[C@H](C(=O)NC2C3CCCC2CNC3)O1 (stereo partly drawn) [Example 37, (2R,6R)-N-(3-azabicyclo[3.3.1]nonan-9-yl)-4-(7-cyanopyrazolo[1,5-a]pyridin-4-yl)-6-methyl-morpholine-2-carboxamide]
27 | C[C@@H]1CN(c2ccc(C#N)n3nccc23)C[C@H](C(=O)NC2(C)CCNCC2)O1 [Example 19, (2R,6R)-4-(7-cyanopyrazolo[1,5-a]pyridin-4-yl)-6-methyl-N-(4-methyl-4-piperidyl)morpholine-2-carboxamide]
7 | C[C@@H]1CN(c2ccc(C#N)n3nccc23)C[C@H](C(=O)NC2CCN(C)CC2)O1 [Example 1, (2R,6R)-4-(7-cyanopyrazolo[1,5-a]pyridin-4-yl)-6-methyl-N-(1-methyl-4-piperidyl)morpholine-2-carboxamide]
5 | C[C@@H]1CN(c2ccc(C#N)n3ncc(F)c23)C[C@H](C(=O)NC2CCN(C)CC2)O1 [Example 47, (2R,6R)-4-(7-cyano-3-fluoro-pyrazolo[1,5-a]pyridin-4-yl)-6-methyl-N-(1-methyl-4-piperidyl)morpholine-2-carboxamide]
50 | C[C@@H]1CN(c2ccc(C#N)n3nccc23)C[C@H](C(=O)NCC2CN(C)CCO2)O1 (stereo partly drawn) [Example 7, (2R,6R)-4-(7-cyanopyrazolo[1,5-a]pyridin-4-yl)-6-methyl-N-[(4-methylmorpholin-2-yl)methyl]morpholine-2-carboxamide]
31 | C[C@@H]1CN(c2ccc(C#N)n3nccc23)C[C@H](C(=O)NC2CN(C)CC23CC3)O1 (stereo partly drawn) [Example 32, (2R,6R)-4-(7-cyanopyrazolo[1,5-a]pyridin-4-yl)-6-methyl-N-(5-methyl-5-azaspiro[2.4]heptan-7-yl)morpholine-2-carboxamide]
25 | C[C@@H]1CN(c2ccc(C#N)n3nccc23)C[C@H](C(=O)NC2CC3COCC(C2)N3)O1 (stereo partly drawn) [Example 22, Endo-(2R,6R)-4-(7-cyanopyrazolo[1,5-a]pyridin-4-yl)-6-methyl-N-[3-oxa-9-azabicyclo[3.3.1]nonan-7-yl]morpholine-2-carboxamide]
100 | CCC(C)(C)NC(=O)[C@H]1CN(c2ccc(C#N)n3nccc23)C[C@@H](C)O1 [Example 17, (2R,6R)-4-(7-cyanopyrazolo[1,5-a]pyridin-4-yl)-N-(1,1-dimethylpropyl)-6-methyl-morpholine-2-carboxamide]
100 | C[C@@H]1CN(c2ccc(C#N)n3nccc23)C[C@H](C(=O)NCC2CNCC2(F)F)O1 (stereo partly drawn) [Example 18, (2R,6R)-4-(7-cyanopyrazolo[1,5-a]pyridin-4-yl)-N-[(4,4-difluoropyrrolidin-3-yl)methyl]-6-methyl-morpholine-2-carboxamide]
